Assays:
[1] = system: human myeloid leukemia U937 cell line; assay: Cell viability of tumor cells exposed to photosensitizer and electromagnetic radiation; format: cell-based; details: for viability at 13 µM: 13 μM compound; for viability at 25 µM: 25 μM compound; for viability at 6 µM: 6 μM compound
Method: A general procedure is carried out for measuring cell viability upon exposure of tumor cells to the fused ring diaza compound of Formula (FX33) and electromagnetic radiation. The compound of Formula (FX33) has an absorption maxima (λmax) of 334 nm. The cell viability measurements are carried out using human myeloid leukemia U937 cell line by the standard WST-1 assay. In this procedure, U397 Leukemia cells (0.5×10^6) are plated in standard T-25 cell culture flasks, and are exposed to four controls and a series of test conditions corresponding to a range of fused ring diaza compound concentrations, summarized in Table 1.
The compound of formula (FX33) is dissolved in 20 to 30% DMSO at an initial concentration of 2-4 mM and serially diluted to the final desired value such that the amount of DMSO exposed to the cells is below 0.5%. The cells are incubated at 37° C. with various concentrations of the fused ring diaza compound photosensitizer for about 30 minutes prior to exposure to electromagnetic radiation. […] It should be noted that in the present study, the electromagnetic radiation source is not optimized with respect to power and wavelength. The viability of cells is assessed after 24 hours following exposure to electromagnetic radiation. The electromagnetic radiation source is a B-100SP High Intensity Lamp from UVP. Once exposure is complete, cells are processed to determine percent viability using Hank's Balanced Salt Solution (HBSS), Trypan blue stain, and a hemacytometer to count live and dead cells. The number of viable cells is determined and percent viability is determined using:
FIG. 4 provides cell viability results for test conditions wherein cells are exposed to electromagnetic radiation and the compound of formula (FX33) for concentrations of 6 μM, 13 μM and 25 μM. […] Cells are incubated in the absence of the compound of formula (FX33) (0 μM) and with the compound of formula (FX33) at concentrations of 6 μM, 13 μM and 25 μM. The cells are exposed to electromagnetic radiation from a B-100SP High Intensity Lamp for 0, 5, 10, and 20 minutes. […] In the presence of 13 μM of the diaza compound of formula (FX33), cells have about 94% viability with electromagnetic radiation exposure for 5 minutes, about 95% viability with electromagnetic radiation exposure for 10 minutes, and about 58% viability with electromagnetic radiation exposure for 20 minutes. In the presence of 25 μM of the compound of formula (FX33), cells have about 86% viability with electromagnetic radiation exposure for 5 minutes, about 30% viability with electromagnetic radiation exposure for 10 minutes, and about 8% viability with electromagnetic radiation exposure for 20 minutes.

Absorption maximum = format: physicochemical
[2] = Homo sapiens, U-937, 5 min, electromagnetic radiation exposure 5 minutes
[3] = Homo sapiens, U-937, 10 min, electromagnetic radiation exposure 10 minutes
[4] = Homo sapiens, U-937, 20 min, electromagnetic radiation exposure 20 minutes

For `COc1cc2c3c(cc(=O)oc3c1OC)NN=C2` [formula (FX33)], the “effect on cell viability (in words)” value ([1]; 6, 13 and 25 μM, exposure 0, 5, 10 and 20 minutes) was “concentration-dependent and electromagnetic radiation exposure time-dependent decreases in cell viability”, the viability at 13 µM [1, 2] was roughly 94% and the viability at 25 µM [1, 2] was roughly 86%. The viability at 6 µM [1, 3] was 100%, the viability at 13 µM [1, 3] was roughly 95% and the viability at 25 µM [1, 3] was roughly 30%. It also gave a viability at 6 µM [1, 4] of roughly 92%, a viability at 13 µM [1, 4] of roughly 58% and a viability at 25 µM [1, 4] of roughly 8%. For the same compound, the IC50 ([1]; Homo sapiens, U-937, 20 min, cells exposed to electromagnetic radiation and photosensitizer for 20 minutes, read-out: VC50/20 (concentration at which 50% decrease in cell viability is observed)) was 5.25 µM, the viability at 6 µM ([1]; Homo sapiens, U-937, electromagnetic radiation exposure 5 minutes (B-100SP lamp, 325-425 nm), viability assessed after 24 hours) was 100% and the “absorption maxima (λmax)” value (Absorption maximum) was 334 nm.
